In patent US10875876B2, “Cyclized sulfamoylarylamide derivatives and the use thereof as medicaments for the treatment of hepatitis B” (priority 2015, dated 2020) one finds EC50 and CC50 data, which are given here for 19 compounds.

In data set [1] the test system is HBV. Nature of the data set: anti HBV activity, HepG2.117 cell line, intracellular HBV DNA by realtime PCR. It counts as cell-based. The gist of the method: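 HepG2.117 cells, a Tet-off line that replicates HBV without doxycycline, were induced and then treated in duplicate with serially diluted compound. After 3 days, intracellular HBV DNA was quantified by real-time PCR with an HBV-specific primer set and probe.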

Data set [2] is described as follows: Cytotoxicity in HepG2 cells, Resazurin assay. The conditions noted are these: human, HepG2 cells, TOX-HepG2-4 d CC50 (μM), HepG2 cells incubated for 4 days, viability by Resazurin assay.
Setting [3] is: Hepatitis B virus, HepG2.117, 72 h, HepG2.117 cell line (Tet-off), 3 days of treatment, intracellular HBV DNA quantified by realtime PCR, read-out: HBV-AVE-HepG2.117 EC50.
Where [4] appears, read: HepG2.117 cell line (Tet-off), 3 days of treatment, intracellular HBV DNA quantified by realtime PCR, read-out: HBV-AVE-HepG2.117 EC50.

Read-outs that look alike come from different tables or passages of the source.

A word on the EC50: it is the concentration that produces a half-maximal response. As usually defined, the CC50 is the concentration that lowers cell viability or growth by half. A lower CC50 goes with harm at low concentration. As for `C[C@H](O)[C@H]1CCc2c(cn(C)c2C(=O)Nc2ccc(F)c(C#N)c2)S(=O)(=O)N1` [Compound 90, (3R)—N-(3-cyano-4-fluoro-phenyl)-3-[(1S)-1-hydroxyethyl]-7-methyl-1,1-dioxo-2,3,4,5-tetrahydropyrrolo[3,4-f]thiazepine-6-carboxamide], in data set [1] (setting [3]), the EC50 was determined as 0.019 µM. Further, the CC50 at 4 days in data set [2] is more than 25 µM.

`Cn1cc2c(c1C(=O)Nc1ccc(F)c(C(F)F)c1)OC[C@H](C(C)(C)O)NS2(=O)=O` [Compound 100, (3R)—N-[3-(difluoromethyl)-4-fluoro-phenyl]-3-(1-hydroxy-1-methyl-ethyl)-7-methyl-1,1-dioxo-3,4-dihydro-2H-pyrrolo[3,4-b][1,4,5]oxathiazepine-6-carboxamide]: the EC50 in data set [1] (setting [3]) was determined as 0.003 µM. The compound further had a CC50 at 4 days in data set [2] of more than 25 µM.

With `CC(NCC(F)(F)F)C1COc2c(cn(C)c2C(=O)Nc2ccc(F)c(C#N)c2)S(=O)(=O)N1` (single isomer, unassigned) [Compound 161a, N-(3-cyano-4-fluoro-phenyl)-7-methyl-1,1-dioxo-3-[1-(2,2,2-trifluoroethylamino)ethyl]-3,4-dihydro-2H-pyrrolo[3,4-b][1,4,5]oxathiazepine-6-carboxamide], the EC50 in data set [1] (setting [4]) is 0.049 µM. In data set [2], the CC50 at 4 days is more than 25 µM.

Take `Cc1cc(CC2(C)COc3c(cn(C)c3C(=O)Nc3ccc(F)c(C(F)F)c3)S(=O)(=O)N2)n(C)n1` (racemic) [Compound 176, N-[3-(difluoromethyl)-4-fluoro-phenyl]-3-[(2,5-dimethylpyrazol-3-yl)methyl]-3,7-dimethyl-1,1-dioxo-2,4-dihydropyrrolo[3,4-b][1,4,5]oxathiazepine-6-carboxamide]: the EC50 in data set [1] (setting [3]) turned out to be 0.004 µM. This compound also registered a CC50 at 4 days in data set [2] of more than 25 µM.

`CC#CCC1COc2c(cn(C)c2C(=O)Nc2ccc(F)c(F)c2)S(=O)(=O)N1` (centres unmarked) [Compound 205, 3-but-2-ynyl-N-(3,4-difluorophenyl)-7-methyl-1,1-dioxo-3,4-dihydro-2H-pyrrolo[3,4-b][1,4,5]oxathiazepine-6-carboxamide]: in data set [1] (Hepatitis B virus, HepG2.117, 72 h, read-out: HBV-AVE-HepG2.117 EC50 (μM)), the EC50 is 0.05 µM. Besides, the CC50 at 4 days in data set [2] is more than 25 µM.

Turning to `C[C@H](O)[C@H]1C=Cc2c(cn(C)c2C(=O)Nc2ccc(F)c(C#N)c2)S(=O)(=O)N1` [Compound 87, (3R)—N-(3-cyano-4-fluoro-phenyl)-3-[(1S)-1-hydroxyethyl]-7-methyl-1,1-dioxo-2,3-dihydropyrrolo[3,4-f]thiazepine-6-carboxamide], in data set [1] (setting [3]), the 50% effective concentration (EC50) worked out at 0.018 µM. In addition, the CC50 at 4 days in data set [2] is more than 25 µM.

With `CC(C)[C@@H]1COc2c(ccc(F)c2C(=O)Nc2ccc(F)c(C#N)c2)S(=O)(=O)N1` [Compound 49, (3R)—N-(3-cyano-4-fluoro-phenyl)-7-fluoro-3-isopropyl-1,1-dioxo-3,4-dihydro-2H-5,1λ^6,2-benzoxathiazepine-6-carboxamide], the EC50 in data set [1] (setting [3]) turned out to be 0.31 µM. Besides, in data set [2], the CC50 at 4 days is more than 25 µM.

On to `C[C@H]1C=Cc2c(cn(C)c2C(=O)Nc2ccnc(Br)c2)S(=O)(=O)N1` (single isomer, unassigned) [Compound 50, (3*S)—N-(2-bromo-4-pyridyl)-3,7-dimethyl-1,1-dioxo-2,3-dihydropyrrolo[3,4-f]thiazepine-6-carboxamide], for which, in data set [1] (setting [3]), the EC50 is 0.002 µM. Moreover, the CC50 at 4 days in data set [2] is more than 25 µM.

In the case of `Cn1cc2c(c1C(=O)Nc1ccc(F)c(C#N)c1)C=CC(C(F)F)NS2(=O)=O` (centres unmarked) [Compound 189, N-(3-cyano-4-fluoro-phenyl)-3-(difluoromethyl)-7-methyl-1,1-dioxo-2,3-dihydropyrrolo[3,4-f]thiazepine-6-carboxamide], in data set [1] (setting [3]), the EC50 amounted to 0.11 µM. Moreover, the CC50 at 4 days in data set [2] was more than 25 µM.

Take `C[C@H]1CCc2c(cn(C)c2C(=O)Nc2ccc(F)c(C#N)c2)S(=O)(=O)N1` (single isomer, unassigned) [Compound 56, (3*S)—N-(3-cyano-4-fluoro-phenyl)-3,7-dimethyl-1,1-dioxo-2,3,4,5-tetrahydropyrrolo[3,4-f]thiazepine-6-carboxamide]: the EC50 in data set [1] (setting [3]) amounted to 0.01 µM. The CC50 at 4 days in data set [2] was more than 25 µM.

As to `CC(C)N1CCc2c(cn(C)c2C(=O)Nc2ccc(F)c(F)c2)S1(=O)=O` [Compound 16, N-(3,4-difluorophenyl)-2-isopropyl-6-methyl-1,1-dioxo-3,4-dihydropyrrolo[3,4-e]thiazine-5-carboxamide], the EC50 in data set [1] (setting [3]) was 0.23 µM. In data set [2], the CC50 at 4 days is more than 25 µM.

For `Cn1cc2c(c1C(=O)Nc1ccc(F)c(Cl)c1)OC[C@H](C(O)C1CC1)NS2(=O)=O` (single isomer, unassigned) [Compound 207a, N-(3-chloro-4-fluoro-phenyl)-3-[cyclopropyl(hydroxy)methyl]-7-methyl-1,1-dioxo-3,4-dihydro-2H-pyrrolo[3,4-b][1,4,5]oxathiazepine-6-carboxamide], in data set [1] (setting [3]), the half-maximal effective concentration (EC50) stood at 0.008 µM. Moreover, the CC50 at 4 days in data set [2] was more than 25 µM.

`Cn1ccc(CC2(C)COc3c(cn(C)c3C(=O)Nc3ccc(F)c(F)c3)S(=O)(=O)N2)n1` (racemic) [Compound 167, N-(3,4-difluorophenyl)-3,7-dimethyl-3-[(1-methylpyrazol-3-yl)methyl]-1,1-dioxo-2,4-dihydropyrrolo[3,4-b][1,4,5]oxathiazepine-6-carboxamide]: the EC50 in data set [1] (setting [3]) came out at 0.041 µM. This compound also registered a CC50 at 4 days in data set [2] of more than 25 µM.

As for `Cc1cccc(CC2(C)COc3c(cn(C)c3C(=O)Nc3ccc(F)c(F)c3)S(=O)(=O)N2)n1` (single isomer, unassigned) [Compound 172a, N-(3,4-difluorophenyl)-3,7-dimethyl-3-[(6-methyl-2-pyridyl)methyl]-1,1-dioxo-2,4-dihydropyrrolo[3,4-b][1,4,5]oxathiazepine-6-carboxamide], the EC50 in data set [1] (setting [3]) was 0.072 µM. This compound showed a CC50 at 4 days in data set [2] of more than 25 µM.

Consider `C=C1c2c(cn(C)c2C(=O)Nc2ccc(F)c(C(F)F)c2)S(=O)(=O)NC1C(C)C` (centres unmarked) [compound 238], for which the EC50 in data set [1] (setting [3]) worked out at 0.077 µM. The compound also returned a CC50 at 4 days in data set [2] of more than 25 µM.

Consider `C=C1c2c(cn(C)c2C(=O)Nc2ccc(F)c(F)c2)S(=O)(=O)NC1C(C)C` (centres unmarked) [compound 237], for which the EC50 in data set [1] (setting [3]) is more than 0.5 µM. In data set [2], this compound came in with a half-maximal cytotoxic concentration (CC50) at 4 days of more than 25 µM.

For `CC(NCC(F)(F)F)C1CCc2c(cn(C)c2C(=O)Nc2cc(F)c(F)c(F)c2)S(=O)(=O)N1` (single isomer, unassigned) [Compound 218c, 7-methyl-1,1-dioxo-3-[1-(2,2,2-trifluoroethylamino)ethyl]-N-(3,4,5-trifluorophenyl)-2,3,4,5-tetrahydropyrrolo[3,4-f]thiazepine-6-carboxamide], the EC50 in data set [1] (setting [4]) came out at 0.006 µM. This compound yielded a CC50 at 4 days in data set [2] of more than 25 µM.

In the case of `CC(C)C1CCc2c(cn(C)c2C(=O)Nc2ccnc(C(F)F)c2)S(=O)(=O)N1` (centres unmarked) [Compound 108, N-[2-(difluoromethyl)-4-pyridyl]-3-isopropyl-7-methyl-1,1-dioxo-2,3,4,5-tetrahydropyrrolo[3,4-f]thiazepine-6-carboxamide], the EC50 in data set [1] (setting [3]) turned out to be 0.016 µM. Moreover, in data set [2], the CC50 at 4 days is more than 25 µM.

For the compound `Cn1cc2c(c1C(=O)Nc1ccc(F)c(F)c1)OCC(CO)NS2(=O)=O` (centres unmarked) [Compound 83, N-(3,4-difluorophenyl)-3-(hydroxymethyl)-7-methyl-1,1-dioxo-3,4-dihydro-2H-pyrrolo[3,4-b][1,4,5]oxathiazepine-6-carboxamide], in data set [1] (setting [3]), the EC50 was 0.058 µM. Also, the CC50 at 4 days in data set [2] is more than 25 µM.
